Here are results for five compounds from patent US6492515B2, “4,4-disubstituted-1, 4-dihydro-2H-3, 1-benzoxazin-2-ones useful as HIV reverse transcriptase inhibitors and intermediates and processes for making the same” (Bristol-Myers Squibb Pharma Company, priority 1996, dated 2002).

Data set [1] has as its target HIV-1 reverse transcriptase (Human immunodeficiency virus type 1 group M subtype B, UniProt P04585). The experiment in a line: Inhibition of HIV reverse transcriptase (statement in background). The data set is classed as biochemical. The settings on record: metabolite of NNRTI from rat, monkey and human microsomes.

For the compound `O=C1Nc2c(F)cc(Cl)cc2C(C#CC2CC2)(C(F)(F)F)O1` (racemic) [Example 4, (+/−)-6-Chloro-4-(cyclopropylethynyl)-8-fluoro-4-(trifluoromethyl)-1,4-dihydro-2H-3,1-benzoxazin-2-one], the melting point was in the range of 169 to 171 °C. As to `Cc1ccc2c(c1)C(C#CC1CC1)(C(C)C)OC(=O)N2` (racemic) [Example 5, (+/−)-4-Cyclopropylethynyl-4-isopropyl-6-methyl-1,4-dihydro-2H-3,1-benzoxazin-2-one], the melting point fell in the range of 138 to 138.5 °C. As for `CC(=O)c1ccc2c(c1)C(C#CC1CC1)(C(F)(F)F)OC(=O)N2` (racemic) [Example 7, (+/−)-6-Acetyl-4-cyclopropylethynyl-4-trifluoromethyl-1,4-dihydro-2H-3,1-benzoxazin-2-one], the melting point was in the range of 197 to 200 °C. As to `O=C1Nc2c(O)cc(Cl)cc2[C@@](C#CC2CC2)(C(F)(F)F)O1` [Example 2, (−)-6-Chloro-4-(cyclopropylethynyl)-8-hydroxy-4-(trifluoromethyl)-1,4-dihydro-2H-3,1-benzoxazin-2-one], the “inhibitor of HIV reverse transcriptase” value in data set [1] was “potent inhibitor”. Regarding `O=C1Nc2ccc(Cl)cc2[C@@](C#Cc2ccccn2)(C(F)(F)F)O1` [Example 23], the melting point turned out to be 185.8 °C.
